Experimental data reported in patent US10428066B2, “Imidazo[4,5-C]pyridine and pyrrolo[2,3-C]pyridine derivatives as SSAO inhibitors” (PROXIMAGEN, LLC, priority 2013, dated 2019).

Tests used:
[1] = biological target: human ether a go-go related gene (hERG) K+ channel (Homo sapiens (Human), UniProt Q12809); experiment: hERG assay, IonWorks patch clamp electrophysiology; assay type: cell-based; settings: Chinese Hamster Lung cell line stably expressing hERG, maximum assay concentration 11 uM
Method: Compounds of the invention were tested for inhibition of the human ether a go-go related gene (hERG) K^+ channel using IonWorks patch clamp electrophysiology. 8 Point concentration-response curves were generated on two occasions using 3-fold serial dilutions from the maximum assay concentration (11 uM). Electrophysiological recordings were made from a Chinese Hamster Lung cell line stably expressing the full length hERG channel. Single cell ion currents were measured in the perforated patch clamp configuration (100 ug/mL amphoterocin) at room temperature using an IonWorks Quattro instrument. The internal solution contained 140 mM KCl, 1 mM MgCl2, 1 mM EGTA and 20 mM HEPES and was buffered to pH 7.3. The external solution contained 138 mM NaCl, 2.7 mM KCl, 0.9 mM CaCl2, 0.5 mM MgCl2, 8 mM Na2HPO4 and 1.5 mM KH2PO4, and was buffered to pH 7.3. […] This sequence was repeated 5 times at a frequency of 0.25 Hz. Currents were measured from the tail step at the 5th pulse, and referenced to the holding current. Compounds were incubated for 6-7 min prior to a second measurement of the hERG signal using an identical pulse train. A minimum of 17 cells were required for each plC50 curve fit. A control compound (quinidine) was used (see Table 20 below).

[2] = biological target: purified recombinantly expressed human SSAO (Homo sapiens (Human), UniProt Q16853); experiment: SSAO enzyme inhibition assay (HRP-coupled hydrogen peroxide detection or 14C-benzaldehyde detection, benzylamine substrate); assay type: biochemical; settings: human recombinant SSAO, RT
purified recombinantly expressed human SSAO, sequence (Q16853 29-763): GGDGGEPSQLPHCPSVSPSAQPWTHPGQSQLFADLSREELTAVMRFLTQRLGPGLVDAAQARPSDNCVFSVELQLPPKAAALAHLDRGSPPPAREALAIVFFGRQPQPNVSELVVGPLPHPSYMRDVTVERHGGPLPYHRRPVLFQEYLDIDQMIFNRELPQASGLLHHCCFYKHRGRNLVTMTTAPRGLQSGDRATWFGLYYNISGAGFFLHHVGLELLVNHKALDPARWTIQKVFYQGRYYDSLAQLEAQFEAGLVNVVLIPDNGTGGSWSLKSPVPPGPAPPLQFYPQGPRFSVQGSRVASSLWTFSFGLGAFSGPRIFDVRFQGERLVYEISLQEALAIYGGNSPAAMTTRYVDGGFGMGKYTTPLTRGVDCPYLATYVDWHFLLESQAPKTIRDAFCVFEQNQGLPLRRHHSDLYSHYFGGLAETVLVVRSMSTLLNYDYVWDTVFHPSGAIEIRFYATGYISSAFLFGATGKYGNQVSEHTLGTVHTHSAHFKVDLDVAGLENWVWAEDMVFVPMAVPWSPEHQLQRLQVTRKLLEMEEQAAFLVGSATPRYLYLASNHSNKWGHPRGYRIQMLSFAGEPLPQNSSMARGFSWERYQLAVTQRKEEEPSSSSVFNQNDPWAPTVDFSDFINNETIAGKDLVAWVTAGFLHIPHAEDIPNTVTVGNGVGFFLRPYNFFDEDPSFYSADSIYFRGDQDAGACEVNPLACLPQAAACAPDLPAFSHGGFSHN
Procedure, shortened: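 Two read-outs at room temperature, each after ~15 min enzyme–inhibitor pre-incubation: 14C-benzaldehyde from 40 uM labelled benzylamine with 10 ug/ml enzyme, 1 h, PBS; or HRP-coupled H2O2 detection using 100 uM benzylamine, 1 ug/ml enzyme, pH 7.4 phosphate, read kinetically 1-2 h. Four-parameter logistic IC50s.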

human ether a go-go related gene (hERG) K+ channel, sequence (Q12809 whole entry): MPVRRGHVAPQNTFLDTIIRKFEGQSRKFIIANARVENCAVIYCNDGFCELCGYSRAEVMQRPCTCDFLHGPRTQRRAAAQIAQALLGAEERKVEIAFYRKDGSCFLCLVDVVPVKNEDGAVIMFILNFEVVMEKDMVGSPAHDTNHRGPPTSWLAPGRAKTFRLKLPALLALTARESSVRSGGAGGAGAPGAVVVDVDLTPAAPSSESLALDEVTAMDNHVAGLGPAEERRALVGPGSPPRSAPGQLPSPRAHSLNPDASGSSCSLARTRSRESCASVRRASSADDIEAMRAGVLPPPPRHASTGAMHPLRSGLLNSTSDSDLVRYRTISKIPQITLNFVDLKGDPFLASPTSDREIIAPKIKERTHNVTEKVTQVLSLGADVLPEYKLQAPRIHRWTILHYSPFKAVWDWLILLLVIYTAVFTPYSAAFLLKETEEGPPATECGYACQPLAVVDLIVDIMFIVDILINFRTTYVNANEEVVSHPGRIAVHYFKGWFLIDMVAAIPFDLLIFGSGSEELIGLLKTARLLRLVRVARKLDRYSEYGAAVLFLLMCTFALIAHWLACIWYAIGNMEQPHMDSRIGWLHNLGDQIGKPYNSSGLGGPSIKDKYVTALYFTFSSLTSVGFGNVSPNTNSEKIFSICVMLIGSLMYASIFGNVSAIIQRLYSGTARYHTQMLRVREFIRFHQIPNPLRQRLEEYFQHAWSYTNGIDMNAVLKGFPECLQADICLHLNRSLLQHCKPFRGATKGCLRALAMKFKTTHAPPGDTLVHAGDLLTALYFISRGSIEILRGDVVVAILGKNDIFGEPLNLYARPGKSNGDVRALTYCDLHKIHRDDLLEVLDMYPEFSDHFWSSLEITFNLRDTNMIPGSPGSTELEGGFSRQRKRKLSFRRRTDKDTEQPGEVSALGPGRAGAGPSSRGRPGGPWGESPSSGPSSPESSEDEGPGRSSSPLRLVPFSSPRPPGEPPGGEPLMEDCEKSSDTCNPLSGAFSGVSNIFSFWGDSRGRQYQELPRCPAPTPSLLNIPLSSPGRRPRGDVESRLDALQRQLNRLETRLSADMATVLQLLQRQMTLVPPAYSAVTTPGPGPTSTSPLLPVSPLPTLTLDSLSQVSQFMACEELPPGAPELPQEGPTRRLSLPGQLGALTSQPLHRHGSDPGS

IC50 [2] | Structure (SMILES) | IC50 [1]
– | Clc1ccc(-n2c(-c3ccc(N4CCOCC4)nn3)nc3ccncc32)cc1 [Example 4, 4-{6-[3-(4-Chlorophenyl)-3H-imidazo[4,5-c]pyridin-2-yl]pyridazin-3-yl}morpholine] | 1000 to 10000 nM
– | Clc1ccc(-n2c(-c3ccc(N4CCOCC4)nc3)nc3ccncc32)cc1 [Example 47, 4-{5-[3-(4-Chlorophenyl)-3H-imidazo[4,5-c]pyridin-2-yl]pyridin-2-yl}morpholine] | 1000 to 10000 nM
– | Clc1ccc(-n2c(-c3cnc(N4CCOCC4)nc3)nc3ccncc32)cc1 [Example 51, 4-{5-[3-(4-Chlorophenyl)-3H-imidazo[4,5-c]pyridin-2-yl]pyrimidin-2-yl}morpholine] | 1000 to 10000 nM
– | Cc1ccc(-n2c(-c3ccc(N4CCOCC4)nc3)nc3ccncc32)c(F)c1 [Example 67, 4-{5-[3-(2-Fluoro-4-methylphenyl)-3H-imidazo[4,5-c]pyridin-2-yl]pyridin-2-yl}morpholine] | 1000 to 10000 nM
– | CS(=O)(=O)NC1CCN(c2ccc(-c3nc4ccncc4n3-c3ccc(Cl)cc3)cn2)CC1 [Example 88, N-(1-{5-[3-(4-Chlorophenyl)-3H-imidazo[4,5-c]pyridin-2-yl]pyridin-2-yl}piperidin-4-yl)methanesulfonamide] | 1000 to 10000 nM
200 to 1200 nM | Clc1ccc(-n2c(-c3ccncc3)cc3ccncc32)cc1 [Example 120, 4-[1-(4-Chlorophenyl)-1H-pyrrolo[2,3-c]pyridin-2-yl]pyridine] | 1000 to 10000 nM
50 to 200 nM | Clc1ccc(-n2c(-c3cccnc3)cc3ccncc32)cc1 [Example 122, 3-[1-(4-Chlorophenyl)-1H-pyrrolo[2,3-c]pyridin-2-yl]pyridine] | 1000 to 10000 nM
– | Clc1ccc(-n2c(-c3cnc(N4CCOCC4)nc3)cc3ccncc32)cc1 [Example 127, 4-{5-[1-(4-Chlorophenyl)-1H-pyrrolo[2,3-c]pyridin-2-yl]pyrimidin-2-yl}morpholine] | 100 to 1000 nM
200 to 1200 nM | c1ccc(-n2c(-c3cnc(N4CCOCC4)nc3)cc3ccncc32)cc1 [Example 131, 4-(5-{1-Phenyl-1H-pyrrolo[2,3-c]pyridin-2-yl}pyrimidin-2-yl)morpholine] | 1000 to 10000 nM
– | O=c1cc(-c2cc3ccncc3n2-c2ccc(Cl)cc2)ccn1C1CC1 [Example 138, 4-[1-(4-Chlorophenyl)-1H-pyrrolo[2,3-c]pyridin-2-yl]-1-cyclopropyl-1,2-dihydropyridin-2-one] | 1000 to 10000 nM
– | Clc1ccc(-n2c(-c3cnc(NC4CCOCC4)nc3)cc3ccncc32)cc1 [Example 139, 5-[1-(4-Chlorophenyl)-1H-pyrrolo[2,3-c]pyridin-2-yl]-N-(oxan-4-yl)pyrimidin-2-amine] | 100 to 1000 nM
– | Clc1ccc(-n2c(-c3ccc(CN4CCOCC4)nc3)cc3ccncc32)cc1 [Example 140, 4-({5-[1-(4-Chlorophenyl)-1H-pyrrolo[2,3-c]pyridin-2-yl]pyridin-2-yl}methyl)morpholine] | 1000 to 10000 nM
– | Nc1cc(-c2cc3ccncc3n2-c2ccc(Cl)cc2)ccn1 [Example 147, 4-[1-(4-Chlorophenyl)-1H-pyrrolo[2,3-c]pyridin-2-yl]pyridin-2-amine] | 1000 to 10000 nM
200 to 1200 nM | Fc1cnccc1-c1cc2ccncc2n1-c1ccc(Cl)cc1 [Example 152, 4-[1-(4-Chlorophenyl)-1H-pyrrolo[2,3-c]pyridin-2-yl]-3-fluoropyridine] | 1000 to 10000 nM
50 to 200 nM | Clc1ccc(-n2c(-c3ccncc3Cl)cc3ccncc32)cc1 [Example 153, 3-Chloro-4-[1-(4-chlorophenyl)-1H-pyrrolo[2,3-c]pyridin-2-yl]pyridine] | 1000 to 10000 nM

Structure (SMILES) | IC50 [2] | IC50 [1]
O=c1cc(-c2cc3ccncc3n2-c2ccc(Cl)cc2)cc[nH]1 [Example 142, 4-[1-(4-Chlorophenyl)-1H-pyrrolo[2,3-c]pyridin-2-yl]-1,2-dihydropyridin-2-one] | 50 to 200 nM | 1000 to 10000 nM
